# According to patent publication US11872296B2, “Preservation compositions” (Conopco, Inc., priority 2018, dated 2024):
# How the values were obtained:
# [1] = test system: Gram negative fermenting bacteria: Enterobacter gergoviae & Klebsiella species; assay: Liquid broth checkerboard assay (MIC, ΣFIC synergy), Pool 2; type: cell-based; conditions: tryptic soy broth, 30° C., 24 hours, ΣFIC<1 synergistic
# Text: (§1) The differing behaviours of inhibitory antimicrobials in isolation and mixtures have been widely explored using the concept of the Fractional Concentration and Fractional Inhibitory Concentration (FIC). See for instance JRW Lambert and R Lambert, J. Appl. Microbiol 95, 734 (2003); T. Jadavji, CG Prober and R Cheung, Antimicrobial Agents and Chemotherapy 26, 91 (1984), and WO 2004/006876. These parameters can be defined as follows:
# (§2) FC (component a)=Concentration of component a tested in the mixture/MIC (component a tested as a single active)
# (§3) FIC (component a)=MIC (component a tested in the mixture)/MIC (component a tested as a single active)
# (§4) The interactions between antimicrobials can be additive, synergistic or possibly antagonistic depending on whether the efficacy of the combination is equivalent to, greater than or less than that obtained for the same total concentration of the individual components when tested alone.
# (§5) These relationships can be expressed mathematically by summing the fractional MIC values for all the components present in the mixture to give the “fractional inhibitory index”: ΣFIC=FIC(component 1)+FIC(component 2) Such that: ΣFIC≥1 corresponds to additive or antagonistic activity ΣFIC<1 corresponds to synergistic activity
# (§6) Liquid broth assays (MIC and checkerboard) were conducted to identify the minimum concentration(s) of individual and binary combinations of preservation chemicals. A modified methodology to ISO 20776-1:2006 was utilised for the screening as follows. Stock solutions of preservation chemicals and tryptic soy broth were inoculated with 1-5×10^6 microorganisms and incubated at 30° C. for 24 hours, after which optical densities at OD600nm were measured. […] Preservation chemicals were screened at a concentration range of 0.0156-2%.
# [2] = test system: Gram negative non-fermenting bacteria: Pseudomonas aeruginosa, Pseudomonas putida & Burkholderia cepacia; assay: Liquid broth checkerboard assay (MIC, ΣFIC synergy), Pool 1; type: cell-based; conditions: tryptic soy broth, 30° C., 24 hours, ΣFIC<1 synergistic
# Text: as §1, §2, §3, §4, §5, §6
# [3] = binary combination with Citric Acid
# [4] = binary combination with Itaconic acid
SMILES,"ΣFIC synergy score [1, 3]","ΣFIC synergy score [1, 4]","ΣFIC synergy score [2, 3]","ΣFIC synergy score [2, 4]"
CCCCc1ccc(O)cc1 [4-n-butyl phenol],0.59,0.50,0.50,0.44
CCOc1cc(C=O)ccc1O [Ethylvanillin],0.69,0.63,0.63,0.56
C=CCc1ccc(O)c(OC)c1 [Eugenol],0.53,0.38,0.75,0.38
